Experimental data taken from patent US11345666B2, “Phenyl and pyridinyl substituted imidazoles as modulators of RORγT” (Janssen Pharmaceutica NV, priority 2018, dated 2022).
Marks after values point to notes of the source that are not given here.

Tests used:
[1] = biological target: human RORγt ligand binding domain (RORγt LBD) (Homo sapiens (Human), UniProt P51449); test: RORγt ThermoFluor assay
Description: ThermoFluor® is a fluorescence based assay that estimates ligand binding affinities by measuring the effect of a ligand on protein thermal stability (Pantoliano, M. W., Petrella, E. C., Kwasnoski, J. D., Lobanov, V. S., Myslik, J., Graf, E., Carver, T., Asel, E., Springer, B. A., Lane, P., and Salemme, F. R. (2001) High-density miniaturized thermal shift assays as a general strategy for drug discovery. J Biomol Screen 6, 429-40, and Matulis, D., Kranz, J. K., Salemme, F. R., and Todd, M. J. (2005) Thermodynamic stability of carbonic anhydrase: measurements of binding affinity and stoichiometry using ThermoFluor. Biochemistry 44, 5258-66). This approach is applicable to a wide variety of systems, and rigorous in theoretical interpretation through quantitation of equilibrium binding constants (KD).
The shift in the melting point described as a ΔTm is proportional to the concentration and affinity of the ligand.
RORγt ThermoFluor® Assay Construct
Nucleotides 850-1635 (SEQ ID NO:2) coding for the wild type human RORγt ligand binding domain (RORγt LBD) were cloned into the pHIS 1 vector, a modified pET E. coli expression vector (Accelagen, San Diego), containing an in-frame N-terminal His-tag and a TurboTEV protease cleavage site (ENLYFQG, SEQ ID NO:3) upstream of the cloned insert sequence. The amino acid sequence for the RORγt construct used in the Thermofluor® assay is shown as SEQ ID NO:4.
ThermoFluor® experiments were carried out using instruments owned by Janssen Research and Development, L.L.C. through its acquisition of 3-Dimensional Pharmaceuticals, Inc. 1,8-ANS (Invitrogen) was used as a fluorescent dye. Protein and compound solutions are dispensed into black 384-well polypropylene PCR microplates (Abgene) and overlayed with silicone oil (1 μL, Fluka, type DC 200) to prevent evaporation.
Bar-coded assay plates are robotically loaded onto a thermostatically controlled PCR-type thermal block and then heated at a typical ramp-rate of 1° C./min for all experiments. Fluorescence was measured by continuous illumination with UV light (Hamamatsu LC6) supplied via fiber optic and filtered through a band-pass filter (380-400 nm; >6 OD cutoff). Fluorescence emission of the entire 384-well plate was detected by measuring light intensity using a CCD camera (Sensys, Roper Scientific) filtered to detect 500±25 nm, resulting in simultaneous and independent readings of all 384 wells. Images were collected at each temperature, and the sum of the pixel intensity in a given area of the assay plate was recorded versus temperature. Reference wells contained RORγt without compounds, and the assay conditions were as follows: • 0.065 mg/mL RORγt • 60 μM 1,8-ANS • 100 mM Hepes, pH 7.0 • 10 mM NaCl • 2.5 mM GSH • 0.002% Tween-20
Project compounds were arranged in a pre-dosed mother plate (Greiner Bio-one) wherein compounds are serially diluted in 100% DMSO by 1:2 from a high concentration of 10 mM over 12 columns within a series (column 12 is a reference well containing DMSO, no compound). The compounds were robotically dispensed directly into assay plates (1×=46 nL) using a Hummingbird capillary liquid handling instrument (Digilab). Following compound dispense, protein and dye in buffer was added to achieve the final assay volume of 3 μL, followed by 1 μL of silicone oil.
The binding affinity was estimated as described previously (Matulis, D., Kranz, J. K., Salemme, F. R., and Todd, M. J. (2005) Thermodynamic stability of carbonic anhydrase: measurements of binding affinity and stoichiometry using ThermoFluor®. Biochemistry 44, 5258-66) using the following thermodynamic parameters of protein unfolding: […]

full-length human RORγt = full-length human RORγt (Homo sapiens (Human), UniProt P51449); test: RORγt (full-length human) reporter assay, conditions A or B; type: cell-based; conditions: for IC50: HEK293T cells, read-out: RORγt (FL) Reporter Assay A or B, IC50; for inhibition at 2 µM: 2 μM compound concentration (**), read-out: RORγt (FL) Reporter Assay A or B, % inhibition; for inhibition at 3 µM: read-out: RORγt (FL) Reporter Assay A or B, % inhibition, 3 μM compound concentration (*)
Description: RORγt (Full-Length Human) Reporter Assay:
Cells used in this assay were transiently co-transfected with three different plasmids, one expressing the GAL4-DNA binding domain (DBD)-RORγt fusion protein under control of a CMV promoter (NH2-Gal4-DBD:RORC—COOH in pCMV-BD, Stratagene #211342), and two reporter plasmids—the firefly luciferase reporter under control of a GAL4 promoter (pFR-Luc 2×GAL4) and Renilla luciferase reporter under control of CMV promoter (pRL-CMV, Promega #E2261). […] HEK293T cells were plated at 35,000 per well in 96-well plate in medium of DMEM with 10% FBS. After 18-22 hours incubation, the transfection was carried out by using a PEI solution with 170.5 ng total DNA/well (50 ng pCMV-BD-ROR plus 20 ng of pFR-Luc reporter and 0.5 ng of pRL-CMV reporter plus 100 ng Carrier DNA (Clontech #630440) for each well). 4-6 hours after transfection, cells were treated with compounds for overnight in the medium with final concentration of FBS 1.3% and DMSO 0.1%. After overnight (16 to 20 hours) incubation, media were removed and cells were lysed with […] Glo Lysis Buffer (Promega) for 10-15 minutes followed by 10 minute incubation with 50 μL Dual Glo reagent (Promega) at room temperature. Firefly luciferase luminescence was measured using a BMG Pherastar plate reader. To each well, 50 μL Stop and Glo reagent was added and incubated for 10 minutes at room temperature. Renilla luminescence was measured using a BMG Pherastar plate reader. To calculate the effect of compounds on RORγt activity, firefly values were normalized against values of DMSO only and values of reference compound at saturating concentration, then further normalized against Renilla signals. IC50s were generated by plotting final Renilla normalized data against compound concentration and percent inhibition was calculated against DMSO control.
Cells used in this assay were transiently co-transfected with three different plasmids, one expressing the GAL4-DNA binding domain (DBD)-RORγt fusion protein under control of a CMV promoter (NH2-Gal4-DBD:RORC—COOH in pCMV-BD, Stratagene #211342), and two reporter plasmids—the firefly luciferase reporter under control of a GAL4 promoter (pFR-Luc 2×GAL4) and Renilla luciferase reporter under control of CMV promoter (pRL-CMV, Promega #E2261). […] HEK293T cells were plated at 8750 cells per well in 384-well plate in medium of DMEM with 10% FBS. After 18-22 hours incubation, the transfection was carried out by using a PEI solution with 42.6 ng total DNA/well (12.5 ng pCMV-BD-ROR plus 5 ng of pFR-Luc reporter and 0.125 ng of pRL-CMV reporter plus 25 ng Carrier DNA (Clontech #630440) for each well). 4-6 hours after transfection, cells were treated with compounds for overnight in the medium with final concentration of FBS 1.3% and DMSO 0.1%. After overnight (16 to 20 hours) incubation, media were removed and cells were lysed with 20 μL Glo Lysis Buffer (Promega) for 10-15 minutes followed by 10 minute incubation with 20 μL Dual Glo reagent (Promega) at room temperature. Firefly luciferase luminescence was measured using a BMG Pherastar plate reader. To each well, 20 μL Stop and Glo reagent was added and incubated for 10 minutes at room temperature. Renilla luminescence was measured using a BMG Pherastar plate reader. To calculate the effect of compounds on RORγt activity, firefly values were normalized against values of DMSO only and values of reference compound at saturating concentration, then further normalized against Renilla signals. IC50s were generated by plotting final Renilla normalized data against compound concentration and percent inhibition was calculated against DMSO control.

human RORγt ligand binding domain (RORγt LBD), sequence (P51449 other isoform, or with tags, fused parts or gaps): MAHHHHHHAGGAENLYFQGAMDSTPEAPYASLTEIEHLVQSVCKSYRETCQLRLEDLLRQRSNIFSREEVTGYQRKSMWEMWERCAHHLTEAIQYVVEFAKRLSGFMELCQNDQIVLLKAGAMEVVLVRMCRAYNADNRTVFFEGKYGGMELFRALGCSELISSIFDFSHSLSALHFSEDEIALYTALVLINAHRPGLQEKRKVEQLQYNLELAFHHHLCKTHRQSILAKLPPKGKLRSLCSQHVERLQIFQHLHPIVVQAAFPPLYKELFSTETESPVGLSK
full-length human RORγt, sequence (P51449 other isoform, or with tags, fused parts or gaps): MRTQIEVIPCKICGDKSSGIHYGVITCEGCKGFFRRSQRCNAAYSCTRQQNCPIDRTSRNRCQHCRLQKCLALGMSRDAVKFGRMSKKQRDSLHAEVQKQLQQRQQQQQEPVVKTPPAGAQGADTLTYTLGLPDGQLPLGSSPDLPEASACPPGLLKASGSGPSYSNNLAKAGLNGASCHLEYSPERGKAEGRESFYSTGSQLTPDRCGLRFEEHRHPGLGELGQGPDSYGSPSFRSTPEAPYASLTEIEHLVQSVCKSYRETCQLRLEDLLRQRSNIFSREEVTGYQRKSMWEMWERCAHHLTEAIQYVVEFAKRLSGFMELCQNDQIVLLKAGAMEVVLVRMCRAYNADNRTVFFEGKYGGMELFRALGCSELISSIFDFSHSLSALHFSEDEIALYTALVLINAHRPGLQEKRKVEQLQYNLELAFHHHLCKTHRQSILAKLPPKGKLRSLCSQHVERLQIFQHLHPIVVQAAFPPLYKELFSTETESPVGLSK

Row | Compound | Kd [1] [nM] | RORγt (FL) Reporter Assay A or B, % inhibition (full-length human RORγt; 0.67 μM compound concentration (****)) | IC50 (full-length human RORγt) [nM] | inhibition at 2 µM (full-length human RORγt) [%] | inhibition at 3 µM (full-length human RORγt) [%]
1 | CCc1nc(C(=O)NC[C@H]2CC[C@H](S(C)(=O)=O)CC2)c(Cl)n1-c1ccc(CC(C)C(F)(F)F)cc1OC (single isomer, unassigned) [Example 5, 5-Chloro-2-ethyl-1-((1R*)-2-methoxy-4-(3,3,3-trifluoro-2-methylpropyl)phenyl)-N-(((1r,4R)-4-(methylsulfonyl)cyclohexyl)methyl)-1H-imidazole-4-carboxamide] | 1300 | 43**** % | 260 |  | 
2 | CCc1nc(C(=O)NC[C@]2(O)CC[C@@H](S(C)(=O)=O)CC2)cn1-c1ccc(C[C@@H](C)C(F)(F)F)cc1OC (single isomer, unassigned) [Example 17, 2-Ethyl-N-(((1s,4S)-1-hydroxy-4-(methylsulfonyl)cyclohexyl)methyl)-1-(2-methoxy-4-((R*)-3,3,3-trifluoro-2-methylpropyl)phenyl)-1H-imidazole-4-carboxamide] | 75 |  | 400 | 74 | 
3 | CCc1nc(C(=O)NC[C@H]2CC[C@H](S(C)(=O)=O)CC2)cn1-c1ccc(C[C@@H](C)C(F)(F)F)cc1OC (single isomer, unassigned) [Example 18, 2-Ethyl-1-(2-methoxy-4-((R*)-3,3,3-trifluoro-2-methylpropyl)phenyl)-N-(((1r,4R)-4-(methylsulfonyl)cyclohexyl)methyl)-1H-imidazole-4-carboxamide] | 28 |  | 230 | 93 | 
4 | CCc1nc(C(=O)NC[C@]2(O)CC[C@@H](S(C)(=O)=O)CC2)cn1-c1ccc(C[C@H](C)C(F)(F)F)cc1OC (single isomer, unassigned) [Example 19, 2-Ethyl-N-(((1s,4R)-1-hydroxy-4-(methylsulfonyl)cyclohexyl)methyl)-1-(2-methoxy-4-((S*)-3,3,3-trifluoro-2-methylpropyl)phenyl)-1H-imidazole-4-carboxamide] | 50 |  | 360 | 80 | 
5 | CCc1nc(C(=O)NC[C@H]2CC[C@H](S(C)(=O)=O)CC2)cn1-c1ccc(C[C@H](C)C(F)(F)F)cc1OC (single isomer, unassigned) [Example 20, 2-Ethyl-1-(2-methoxy-4-((S*)-3,3,3-trifluoro-2-methylpropyl)phenyl)-N-(((1r,4S)-4-(methylsulfonyl)cyclohexyl)methyl)-1H-imidazole-4-carboxamide] | 21 |  | 170 | 94 | 
6 | Cc1nc(C(=O)NC[C@H]2CC[C@H](S(C)(=O)=O)C[C@@H]2O)c(C#N)n1-c1ccc(CC(C)(C)C(F)(F)F)cc1OC(F)F (single isomer, unassigned) [Example 56, 5-Cyano-1-(2-(difluoromethoxy)-4-(3,3,3-trifluoro-2,2-dimethylpropyl)phenyl)-N-(((1R*,2S*,4S*)-2-hydroxy-4-(methylsulfonyl)cyclohexyl)methyl)-2-methyl-1H-imidazole-4-carboxamide] | 32 |  | 63 |  | 102
7 | Cc1nc(C(=O)NC[C@@H]2CC[C@@H](S(C)(=O)=O)C[C@H]2O)c(C#N)n1-c1ccc(CC(C)(C)C(F)(F)F)cc1OC(F)F (single isomer, unassigned) [Example 57, 5-Cyano-1-(2-(difluoromethoxy)-4-(3,3,3-trifluoro-2,2-dimethylpropyl)phenyl)-N-(((1S*,2R*,4R*)-2-hydroxy-4-(methylsulfonyl)cyclohexyl)methyl)-2-methyl-1H-imidazole-4-carboxamide] | 22 |  | 40 |  | 98
8 | CCc1nc(C(=O)NC[C@H]2CC[C@H](S(C)(=O)=O)C[C@@H]2O)c(Cl)n1-c1ncc(CC(C)(C)C(F)(F)F)cc1OC(F)F (single isomer, unassigned) [Example 58, 5-Chloro-1-(3-(difluoromethoxy)-5-(3,3,3-trifluoro-2,2-dimethylpropyl)pyridin-2-yl)-2-ethyl-N-(((1R*,2S*,4S*)-2-hydroxy-4-(methylsulfonyl)cyclohexyl)methyl)-1H-imidazole-4-carboxamide] | 12 |  | 160 |  | 121
9 | CCc1nc(C(=O)NC[C@@H]2CC[C@@H](S(C)(=O)=O)C[C@H]2O)c(Cl)n1-c1ncc(CC(C)(C)C(F)(F)F)cc1OC(F)F (single isomer, unassigned) [Example 59, 5-Chloro-1-(3-(difluoromethoxy)-5-(3,3,3-trifluoro-2,2-dimethylpropyl)pyridin-2-yl)-2-ethyl-N-(((1S*,2R*,4R*)-2-hydroxy-4-(methylsulfonyl)cyclohexyl)methyl)-1H-imidazole-4-carboxamide] | 12 |  | 65 |  | 104
